Experimental findings from US20140234868A1, “USE FOR GLYCOLIPOPROTEIN GINTONIN, ISOLATED AND IDENTIFIED FROM GINSENG, AS A NATURAL MEDICAL-PLANT DERIVED LIGAND” (KONKUK UNIVERSITY INDUSTRIAL COOPERATION CORP., priority 2011, published 2014) are described below.

Assay [1] relates to NMDA receptors (NR1 and NR2). Briefly: NMDA receptor activity in Xenopus oocytes, two-electrode voltage clamp. It is filed as cell-based. To be noted: gintonin 1 μg/ml; Kil6425 10 μM; U73122, U73343 1 μM; 2-APB 100 μM; BAPTA 100 μM 3 h; genistein 10 μM; PP2, PP3 30 μM. On the procedure:
cDNAs of NMDA receptor subunits (NR1 and NR2) were employed (Zheng et al., J Neurosci. 17, 8676-8686, 1997). cDNAs (100 ng/40 nl) corresponding to respective NMDA receptor subunits (NR1 and NR2) were injected into animal or vegetal poles of oocytes by use of a […] (VWR Scientific, USA) and incubated for 4-5 days after injection (Zheng et al., J Neurosci. 17, 8676-8686, 1997).
(§1) Xenopus laevis frogs were obtained from Xenopus I (Ann Arbor, Mich.). Their care and handling were in accordance with the highest standards of institutional guidelines. To isolate oocytes, the frogs were operated on under anesthesia with an aerated solution of 3-aminobenzoic acid ethyl ester. Oocytes were separated by treatment with collagenase and agitation for two hours in a Ca^2+-free medium containing 82.5 mM NaCl, 2 mM KCl, 1 mM MgCl2, 5 mM HEPES, 2.5 mM sodium pyruvate, 100 units/ml penicillin and 100 μg/ml streptomycin.
Stage V-VI oocytes were collected and stored in ND96 (96 mM NaCl, 2 mM KCl, 1 mM MgCl2, 1.8 mM CaCl2, and 5 mM HEPES, pH 7.4) supplemented with 50 μg/ml gentamicin. This oocyte containing solution was maintained at 18° C. with continuous gentle shaking while the ND96 medium was changed to a fresh one every day.
Two-electrode voltage-clamp recordings were obtained from individual oocytes placed in a small Plexiglas net chamber (5 ml). Electrophysiological experiments were performed using microelectrodes filled with 3 M KCl (resistance of 0.2-0.7 MΩ) and an Oocyte Clamp amplifier (OC-725C; Warner Instrument, Hamden, Conn.). For physiological recordings of NMDA receptor activity, oocytes were first perfused with Mg^2+-free ND96 (mM: 96 NaOH, 2 KOH, 0.3 CaCl2, 5 HEPES pH 7.6 with methanesulfonic acid). Then, the oocytes were clamped at −60 mV holding potential, followed by recoding NMDA currents (induced by administering […]) (Zheng et al., J Neurosci. 17, 8676-8686, 1997; Chang and Kuo, J Neurosci. 28, 1546-1556, 2008).

The target in assay [2] is T1, LPA3 receptor (Homo sapiens, UniProt Q9UBY5).
T1 construct: host or cells: B103 rat neuroblastoma cells
T1 sequence (Q9UBY5 1-353): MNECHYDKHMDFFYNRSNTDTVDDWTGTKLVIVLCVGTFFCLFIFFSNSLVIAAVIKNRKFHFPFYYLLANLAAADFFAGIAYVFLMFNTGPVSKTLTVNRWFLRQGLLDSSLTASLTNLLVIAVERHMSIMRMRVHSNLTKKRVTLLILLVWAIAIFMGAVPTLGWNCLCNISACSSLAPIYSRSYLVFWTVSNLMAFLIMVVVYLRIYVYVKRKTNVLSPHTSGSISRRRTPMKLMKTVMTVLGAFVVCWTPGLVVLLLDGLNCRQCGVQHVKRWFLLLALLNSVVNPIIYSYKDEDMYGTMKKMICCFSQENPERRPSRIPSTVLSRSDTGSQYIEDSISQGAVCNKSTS
Nature of the assay: Intracellular free Ca2+ (Fura-2AM) in LPA3-expressing B103 cells. It is filed as cell-based. The following applies: LPA3-expressing B103 cells; for increase of intracellular calcium level: ginsenosides each 10 μM. From the text:
LPA family receptors are endogenous to cells of most organs. B103 rat neuroblastoma cells, known as LPA receptor-null cells (Valentine et al., Biochim Biophys Acta 1780. 597-605) were transiently transfected with a plasmid (vector) carrying one of genes coding for LPA1(edg-2), LPA2(edg-4), LPA3(edg-7), LPA4, LPA5 and LPA6 receptors or a plasmid carrying none of them (empty vector). Two or three days after transfection, the cells are suspended, and made permeable. Then, the permeable cells are treated with Fura-2AM, a fluorescent dye binding to calcium, and then with gintonin, followed by spectrofluorephotometry to examine whether gintonin induces an increase in intracellular free Ca^2+ level.
(1) preparing large quantities of plasmids carrying respective LPA family receptor genes and an empty plasmid carrying none of them through amplification and purification (maxi-preparation); (2) verifying the expression of LPA receptors wherein B103 cells are transfected with haematoglutin (HA)-tagged LPA receptors, and then subjected to Western blotting analysis using an anti-HA primary antibody and a horseradish peroxidase (HRP)-conjugated secondary antibody to develop a color; (3) verifying the expression of LPA receptors wherein B1-3 cells are transfected with haematoglutin (HA)-tagged LPA receptors, and then subjected to confocal laser microscopy using an anti-HA antibody and a fluorescence dye Cy3-conjugated secondary antibody; (4) transfecting the empty plasmid and each of the plasmids carrying LPA family receptor genes into B103 cells; (5) treating the transfected B103 cells with trypsin (0.05% trypsin with EDTA, w/v) 2-3 days post-transfection, to give a cell suspension; (6) culturing the suspended B103 cells with Fura-2AM (2.5 μM); and (7) treating the suspended B103 cells with gintonin and quantifying a change in intracellular free Ca^2+ level in a cuvette by spectrofluorephotometry using Fura-2AM.
Human LPA (lysophosphatidic acid) receptor subtypes, orphan GPCRs (G protein coupled receptors) and plasmids carrying GPCRs were purchased from Missouri S&T resource Center (www.cDNA.org).
The transient transfection of LPA receptor subtypes was carried out with the aid of Lipofectamine 2000 of Invitrogen. A plasmid (10.8 μg) carrying each LPA receptor (LPA1, LPA2, LPA3, LPA4, LPA5, and LPA6) was transfected into B103 cells grown in 10-cm dishes, and incubated for 2 days prior for use in experiments.
In this Example, gintonin, or ginsenoside Rb1 or Rg1 was examined for its ability to induce a transient increase of [Ca^2+]i in Fura-2AM-loaded B103 cells which were transfected with LPA receptors and in Fura-2AM-loaded B103 cells which were not transfected with LPA receptors. To this end, B103 cells (2˜4×10^6/ml) pre-treated with Fura-2AM were suspended in a 1.5 mM Ca^2+-containing buffer or Ca^2+-free buffer, and incubated 37° C. for 30 min, followed by analyzing intracellular calcium levels in the B103 cells in the presence of gintonin or ginsenosides.
Briefly, B103 cells (1˜2×10^6/ml) were mixed with 2.5 μM Fura 2-AM in a Ca^2+ buffer (pH 7.4) containing NaCl 120 mM, KCl 5 mM, MgCl2 1 mM, CaCl2 1.5 mM, glucose 10 mM, and HEPES 25 mM, and a Ca^2+ free buffer (pH 7.4) containing NaCl 120 mM, KCl 5 mM, MgCl2 1 mM, EGTA 0.2 mM, glucose 10 mM, and HEPES 25 mM at 37° C. for 30 min in water bath with shaking according to the Jørgensen method, and washed three times with Ca^2+ buffer or Ca^2+ free buffer to remove excess Fura-2AM.
[Ca^2+]i was estimated in Fura 2AM-loaded cells in suspension using an RF-5300PC intracellular ion measurement system (Shimadzu Corporation, Japan).
Briefly, Fura 2-AM loaded cells were diluted with an experimental medium to a final density of 2˜4×10^6 cells/mL, and transferred to polystyrene cuvettes (Elkay Ultra-VU). The cells were stirred using Teflon-coated magnets, and the cuvette housing was thermostatically controlled at 37° C. The excitation wavelengths were alternated between 340 and 380 nm under computer control. […]
For orientation: A change in cytosolic calcium serves as a functional read-out for many receptors and channels.

Assay [3] deals with mice. Nature of the assay: Busulfan-caused diarrhea and mucositis in mice. It is filed as in vivo, mouse. To be noted: busulfan 40 mg/kg i.p.; for Diarrhea (cases / mice) / Mucositis (cases / mice): gintonin 100 mg/kg oral 3 days before, observed 10 days. On the procedure: In this Example, an examination was made of the inhibitory activity of gintonin against chemotherapy-induced diarrhea and mucositis. For this, gintonin-treated mice were administered with busulfan, and observed for diarrhea and mucostitis.
Briefly, mice were orally administered at a dose of 100 mg/kg with gintonin 3 days before intraperitoneal injection with busulfan (40 mg/kg). For the control, physiological saline was used, instead of gintonin.

The test system of assay [4] is BKCaK+ channels. Briefly: BKCa K+ channel activity in Xenopus oocytes, two-electrode voltage clamp. Format: cell-based. The following applies: Kil6425 10 μM; U73122, U73343 1 μM; 2-APB 100 μM; BAPTA-AM; PMA 1 μM. The method, then: as §1
Stage V-VI oocytes were collected and stored in ND96 (96 mM NaCl, 2 mM KCl, 1 mM MgCl2, 1.8 mM CaCl2, and 5 mM HEPES, pH 7.4) supplemented with 50 μg/ml gentamicin. This oocyte containing solution was maintained at 18° C. with continuous gentle shaking while the ND96 medium was changed with a fresh one every day.
Two-electrode voltage-clamp recordings were obtained from individual oocytes placed in a small Plexiglas net chamber (5 ml). Electrophysiological experiments were performed using microelectrodes filled with 3 M KCl (resistance of 0.2-0.7 MΩ) and an Oocyte Clamp amplifier (OC-725C; Warner Instrument, CT, USA) to record BKc K^+ channel activity at room temperature (Choi et al., Mol Cells 31, 133-140, 2011). For physiological recordings of BKCaK^+ channel activity, oocytes were first perfused with a Cl^−- and Ca^2+-free solution (mM: 96 NaOH, 2 KOH, 8 Mg-gluconate, 5 HEPES, 5 EGTA, pH 7.4 with methanesulfonic acid) supplemented with 500 μM anthracene-9-carboxylic acid, a Cl^− channel blocker, to block endogenous Cl-channels (Lu et al., J. Biol. Chem. 265, 16190-16194.1990). Then, the oocytes were clamped at −80 mV holding potential, followed by step depolarization from the holding potential to +40 mV at regular intervals of […] for 400 ms to record outward currents.

As for `O=c1c(-c2ccc(O)cc2)coc2cc(O)cc(O)c12` [Genistein], the “effect on gintonin-induced NMDA receptor activation” value in assay [1] was “inhibit gintonin-induced NMDA receptor activation”.

For `CC(C)(C)n1nc(-c2ccc(Cl)cc2)c2c(N)ncnc21` [PP2], the “effect on gintonin-induced NMDA receptor activation” value in assay [1] is “blocked the action of gintonin”. As for `CC(C)=CCC[C@](C)(O[C@@H]1O[C@H](CO)[C@@H](O)[C@H](O)[C@H]1O)[C@H]1CC[C@]2(C)[C@@H]1[C@H](O)C[C@@H]1[C@@]3(C)CC[C@H](O)C(C)(C)[C@@H]3[C@@H](O[C@@H]3O[C@H](CO)[C@@H](O)[C@H](O)[C@H]3O)C[C@]12C` [Rg1, ginsenoside Rg1], the “increase of intracellular calcium level” value in assay [2] is given as “no increased intracellular calcium levels were detected”. On the same count and under the same terms, the same measure for `CC(C)=CCC[C@](C)(O[C@@H]1O[C@H](CO[C@@H]2O[C@H](CO)[C@@H](O)[C@H](O)[C@H]2O)[C@@H](O)[C@H](O)[C@H]1O)[C@H]1CC[C@]2(C)[C@@H]1[C@H](O)C[C@@H]1[C@@]3(C)CC[C@H](O[C@@H]4O[C@H](CO)[C@@H](O)[C@H](O)[C@H]4O[C@@H]4O[C@H](CO)[C@@H](O)[C@H](O)[C@H]4O)C(C)(C)[C@@H]3CC[C@]12C` [Rb1, ginsenoside Rb1]: “no increased intracellular calcium levels were detected”. For the compound `CC(C)=CCC[C@](C)(O)[C@H]1CC[C@]2(C)[C@@H]1[C@H](O)C[C@@H]1[C@@]3(C)CC[C@H](O[C@@H]4O[C@H](CO)[C@@H](O)[C@H](O)[C@H]4O[C@@H]4O[C@H](CO)[C@@H](O)[C@H](O)[C@H]4O)C(C)(C)[C@@H]3CC[C@]12C` [Rg3, ginsenoside Rg3], in assay [2], the “increase of intracellular calcium level” value was “no increased intracellular calcium levels were detected”. Take pertussis toxin [PTX]: in assay [2] (PTX 200 μg/ml, 16 hrs pretreatment, vs cells not treated with PTX), the “lowering of gintonin-induced increase of intracellular calcium level” value worked out at 25%. `CS(=O)(=O)OCCCCOS(C)(=O)=O` [Busulfan, busulfan, reference compound] returned a diarrhea morbidity rate in assay [3] (gintonin 100 mg/kg oral) of 53.3%. In assay [3] (gintonin 100 mg/kg oral), this compound had a perianal mucositis morbidity of 46.7%. Also, the “Diarrhea (cases / mice)” value in assay [3] is given as 8/15; in assay [3] (listed as busulfan), 8. Further, the figures for the “Mucositis (cases / mice)” value in assay [3] and in assay [3] (listed as bufulfan) were 7/15 and 7, respectively.

As for `COc1ccc2c(c1)CC[C@@H]1[C@@H]2CC[C@]2(C)[C@@H](NCCCCCCN3C(=O)CCC3=O)CC[C@@H]12` [U73343], the “effect on gintonin-induced BKCaK+ channel activation” value in assay [4] was “did not block gintonin-induced BKCaK^+ channel activation”. For the same compound, the “effect on gintonin-induced NMDA receptor activation” value in assay [1] was “did not block gintonin-induced NMDA receptor activation”. Take `Nc1ncnc2c1cnn2-c1ccccc1` [PP3]: the “effect on gintonin-induced NMDA receptor activation” value in assay [1] is “did not show inhibitory activity”.
